In one test the test system is Candida albicans. The settings on record: MTCC 3017.
Another test deals with MCF7. As to the kind of experiment: Cytotoxicity against human MCF7 cells after 24 hrs by MTT assay. The test is classed as functional, cell-based. The settings on record: MCF7, 24 h. (In general: Tetrazolium dyes change colour on reduction, which living cells bring about.)
The subject of test [1] is Pseudomonas aeruginosa. The experiment in a line: Antimicrobial activity against Pseudomonas aeruginosa MTCC 2453 after 24 hrs by well diffusion method. The test is classed as functional. The settings on record: MTCC 2453, 24 h. (In agar diffusion tests the substance spreads into inoculated agar from a disc or well.)
Test [2] relates to Pseudomonas aeruginosa. As to the kind of experiment: Bactericidal activity against Pseudomonas aeruginosa MTCC 2453 after 24 hrs by agar plating method. The test is classed as functional. The settings on record: MTCC 2453, 24 h.
Test [3] deals with Staphylococcus aureus. As to the kind of experiment: Antimicrobial activity against Staphylococcus aureus MLS-16 MTCC 2940 assessed as inhibition of biofilm formation after 24 hrs by crystal violet staining-based assay. The settings on record: MLS-16 MTCC 2940, 24 h. The test is classed as functional, organism-based.
Test [4] deals with Pseudomonas aeruginosa. As to the kind of experiment: Antimicrobial activity against Pseudomonas aeruginosa MTCC 2453 assessed as inhibition of biofilm formation after 24 hrs by crystal violet staining-based assay. The format is functional, organism-based. The settings on record: MTCC 2453, 24 h.
Test [5] has as its system Raoultella planticola. The experiment in a line: Antimicrobial activity against Klebsiella planticola MTCC 530 after 24 hrs by well diffusion method. The format is functional. The settings on record: MTCC 530, 24 h.
The test system of test [6] is Staphylococcus aureus. As to the kind of experiment: Bactericidal activity against Staphylococcus aureus MTCC 96 after 24 hrs by agar plating method. The format is functional. The settings on record: MTCC 96, 24 h.
Test [7] relates to Micrococcus luteus. As to the kind of experiment: Antimicrobial activity against Micrococcus luteus MTCC 2470 after 24 hrs by well diffusion method. The format is functional. The settings on record: MTCC 2470, 24 h.
Test [8] relates to Raoultella planticola. As to the kind of experiment: Antimicrobial activity against Klebsiella planticola MTCC 530 assessed as inhibition of biofilm formation after 24 hrs by crystal violet staining-based assay. The test is classed as functional, organism-based. The settings on record: MTCC 530, 24 h.
The test system of another test is A549. As to the kind of experiment: Cytotoxicity against human A549 cells after 24 hrs by MTT assay. The test is classed as functional, cell-based. The settings on record: A549, 24 h.
In test [9] the test system is Bacillus subtilis. As to the kind of experiment: Bactericidal activity against Bacillus subtilis MTCC 121 after 24 hrs by agar plating method. The test is classed as functional. The settings on record: MTCC 121, 24 h.
Test [10] deals with Bacillus subtilis. As to the kind of experiment: Antimicrobial activity against Bacillus subtilis MTCC 121 after 24 hrs by well diffusion method. The test is classed as functional. The settings on record: MTCC 121, 24 h.
For test [11], the system named is Escherichia coli. As to the kind of experiment: Bactericidal activity against Escherichia coli MTCC 739 after 24 hrs by agar plating method. The settings on record: MTCC 739, 24 h. The test is classed as functional.
For a further test, the system named is HeLa. The experiment in a line: Cytotoxicity against human HeLa cells after 24 hrs by MTT assay. The test is classed as functional, cell-based.
Test [12] relates to Micrococcus luteus. As to the kind of experiment: Bactericidal activity against Micrococcus luteus MTCC 2470 after 24 hrs by agar plating method. The test is classed as functional. The settings on record: MTCC 2470, 24 h.
Test [13] deals with Staphylococcus aureus. As to the kind of experiment: Bactericidal activity against Staphylococcus aureus MLS-16 MTCC 2940 after 24 hrs by agar plating method. The settings on record: MLS-16 MTCC 2940, 24 h. The format is functional.
The test system of a further test is DU-145. The experiment in a line: Cytotoxicity against human DU145 cells after 24 hrs by MTT assay. The test is classed as functional, cell-based. The settings on record: DU-145, 24 h.
Test [14] concerns Staphylococcus aureus. The experiment in a line: Antimicrobial activity against Staphylococcus aureus MTCC 96 after 24 hrs by well diffusion method. The format is functional. The settings on record: MTCC 96, 24 h.
The subject of test [15] is Micrococcus luteus. The experiment in a line: Antimicrobial activity against Micrococcus luteus MTCC 2470 assessed as inhibition of biofilm formation after 24 hrs by crystal violet staining-based assay. The test is classed as functional, organism-based. The settings on record: MTCC 2470, 24 h.
Test [16] deals with Staphylococcus aureus. As to the kind of experiment: Antimicrobial activity against Staphylococcus aureus MLS-16 MTCC 2940 after 24 hrs by well diffusion method. The settings on record: MLS-16 MTCC 2940, 24 h. The format is functional.
In test [17] the test system is Escherichia coli. As to the kind of experiment: Antimicrobial activity against Escherichia coli MTCC 739 after 24 hrs by well diffusion method. The test is classed as functional. The settings on record: MTCC 739, 24 h.
Test [18] deals with Staphylococcus aureus. As to the kind of experiment: Antimicrobial activity against Staphylococcus aureus MTCC 96 assessed as inhibition of biofilm formation after 24 hrs by crystal violet staining-based assay. The test is classed as functional, organism-based. The settings on record: MTCC 96, 24 h.
For test [19], the system named is Raoultella planticola. The experiment in a line: Bactericidal activity against Klebsiella planticola MTCC 530 after 24 hrs by agar plating method. The format is functional. The settings on record: MTCC 530, 24 h.

By MIC is commonly meant the lowest concentration that inhibits growth of the organism. A word on the IC50: it is the concentration that gives 50% inhibition. The term MBC denotes the smallest concentration meeting the test's criterion for killing. Low values mean greater bactericidal potency, high ones weaker bactericidal potency.

In brackets after ≈: the same amount, converted by molar mass. Activity calls are given as the source filed them.

Description for Candida albicans: Antimicrobial activity against Candida albicans MTCC 3017 after 24 hrs by well diffusion method

`CCCCCCCCCCn1nc(-n2cc(COc3cc(C(F)(F)F)nc(N)n3)nn2)c2ccc(C(F)(F)F)nc21`: the MIC result in the test with Candida albicans is “inactive”. Moreover, the IC50 came out at 37.2 µM in the test on MCF7; 3.9 µg/mL (≈ 6.66 µM) in the test with Staphylococcus aureus [3]; 3.9 µg/mL (≈ 6.66 µM) with Pseudomonas aeruginosa [4]; 3.9 µg/mL (≈ 6.66 µM) in the test on Raoultella planticola [8]; 4.2 µM in the test with A549; 34.3 µM with HeLa. In addition, the results for the IC50 in the test on DU-145, with Micrococcus luteus [15] and in the test with Staphylococcus aureus [18] were 5.8 µM, 3.9 µg/mL (≈ 6.66 µM) and 7.8 µg/mL (≈ 13.3 µM), respectively. Besides, the MIC against Pseudomonas aeruginosa [1] worked out at 7.8 µg/mL (≈ 13.3 µM); against Raoultella planticola [5], 7.8 µg/mL (≈ 13.3 µM); in the test with Micrococcus luteus [7] it was 15.6 µg/mL (≈ 26.6 µM); against Bacillus subtilis [10] it was 15.6 µg/mL (≈ 26.6 µM); with Staphylococcus aureus [14], 7.8 µg/mL (≈ 13.3 µM); with Staphylococcus aureus [16] it was 7.8 µg/mL (≈ 13.3 µM). The molecule also gave a minimal inhibitory concentration (MIC) in the test with Escherichia coli [17] of 7.8 µg/mL (≈ 13.3 µM). Also, the MBC in the test with Pseudomonas aeruginosa [2] was 15.6 µg/mL (≈ 26.6 µM); against Staphylococcus aureus [6], 15.6 µg/mL (≈ 26.6 µM); with Bacillus subtilis [9], 31.2 µg/mL (≈ 53.3 µM); with Escherichia coli [11] it was 15.6 µg/mL (≈ 26.6 µM); in the test with Micrococcus luteus [12], 15.6 µg/mL (≈ 26.6 µM); in the test on Staphylococcus aureus [13], 7.8 µg/mL (≈ 13.3 µM). The molecule also gave an MBC in the test on Raoultella planticola [19] of 7.8 µg/mL (≈ 13.3 µM).

Regarding `O=c1[nH]cc(F)c(=O)[nH]1` [FLUOROURACIL], the IC50 came out at 1.4 µM with MCF7, 1.3 µM in the test on A549, 1.3 µM with HeLa and 1.5 µM in the test with DU-145.

Consider `Nc1nc(OCc2cn(-c3nn(CCC(F)(F)C(F)(F)C(F)(F)C(F)(F)C(F)(F)C(F)(F)C(F)(F)C(F)(F)F)c4nc(C(F)(F)F)ccc34)nn2)cc(C(F)(F)F)n1`, for which the MIC entry with Candida albicans was “inactive”. In addition, the IC50 in the test with MCF7 was over 100 µM; in the test on A549, 33.7 µM; in the test on HeLa, over 100 µM; in the test on DU-145, 37.7 µM. The MIC in the test with Pseudomonas aeruginosa [1], in the test with Raoultella planticola [5], in the test on Micrococcus luteus [7], in the test on Bacillus subtilis [10], against Staphylococcus aureus [14] and with Staphylococcus aureus [16] was over 250 µg/mL throughout. This molecule showed an MIC against Escherichia coli [17] of over 250 µg/mL.

Consider `CCCCCCCCn1nc(-n2cc(COc3cc(C(F)(F)F)nc(N)n3)nn2)c2ccc(C(F)(F)F)nc21`, for which the MIC entry in the test on Candida albicans is “inactive”. The IC50 in the test on MCF7 is 24.7 µM; with A549, 5.7 µM; in the test on HeLa, 22.7 µM; with DU-145, 6.3 µM. Further, the MIC in the test on Pseudomonas aeruginosa [1], in the test with Raoultella planticola [5], against Micrococcus luteus [7], against Bacillus subtilis [10], with Staphylococcus aureus [14] and against Staphylococcus aureus [16] was over 250 µg/mL throughout. Moreover, the MIC in the test on Escherichia coli [17] was over 250 µg/mL.

Consider `C#CCn1nc(-n2cc(COc3cc(C(F)(F)F)nc(N)n3)nn2)c2ccc(C(F)(F)F)nc21`, for which the MIC result in the test with Candida albicans is “inactive”. The IC50 in the test with MCF7 is over 100 µM; in the test with A549, 4.1 µM; in the test with HeLa, over 100 µM; in the test with DU-145 it was 4.7 µM. In addition, the minimal inhibitory concentration (MIC) with Pseudomonas aeruginosa [1], against Raoultella planticola [5], in the test with Micrococcus luteus [7], in the test on Bacillus subtilis [10], in the test with Staphylococcus aureus [14] and in the test with Staphylococcus aureus [16] was over 250 µg/mL each time. Moreover, in the test on Escherichia coli [17], the minimal inhibitory concentration (MIC) is over 250 µg/mL.

In the case of `CCn1nc(-n2cc(COc3cc(C(F)(F)F)nc(N)n3)nn2)c2ccc(C(F)(F)F)nc21`, the MIC entry in the test on Candida albicans is “inactive”. For the same molecule, the IC50 is over 100 µM in the test on MCF7, 25.4 µM in the test on A549, over 100 µM in the test on HeLa and 27.7 µM in the test on DU-145. In addition, the MIC against Pseudomonas aeruginosa [1], in the test with Raoultella planticola [5], against Micrococcus luteus [7], in the test on Bacillus subtilis [10], in the test on Staphylococcus aureus [14] and in the test with Staphylococcus aureus [16] was over 250 µg/mL throughout. The MIC in the test with Escherichia coli [17] is over 250 µg/mL.

As to `Nc1n[nH]c2nc(C(F)(F)F)ccc12`, the IC50 in the test on MCF7 was 58.4 µM; with A549, 22.4 µM; in the test on HeLa it was 60.2 µM; in the test with DU-145, 29.1 µM.

Consider `Nc1nc(C(F)(F)F)cc(=O)n1Cc1cn(-c2n[nH]c3nc(C(F)(F)F)ccc23)nn1`, for which the IC50 in the test on MCF7 worked out at 14.4 µM; with A549, 9.5 µM; with HeLa, 16.1 µM; in the test on DU-145 it was 10.5 µM.

Regarding `CCOC(=O)Cn1nc(-n2cc(COc3cc(C(F)(F)F)nc(N)n3)nn2)c2ccc(C(F)(F)F)nc21`, the MIC entry in the test on Candida albicans was “inactive”. For the same molecule, the IC50 with MCF7 is 12.4 µM; with Staphylococcus aureus [3] it was 7.8 µg/mL (≈ 14.7 µM); in the test with Pseudomonas aeruginosa [4] it was 15.6 µg/mL (≈ 29.4 µM); with Raoultella planticola [8] it was 3.9 µg/mL (≈ 7.34 µM); in the test on A549, 16.3 µM; in the test with HeLa, 9.8 µM. The IC50 in the test on DU-145 turned out to be 18.2 µM; with Micrococcus luteus [15], 7.8 µg/mL (≈ 14.7 µM); in the test with Staphylococcus aureus [18], 3.9 µg/mL (≈ 7.34 µM). Moreover, the MIC was 15.6 µg/mL (≈ 29.4 µM) against Pseudomonas aeruginosa [1]; 7.8 µg/mL (≈ 14.7 µM) in the test with Raoultella planticola [5]; over 250 µg/mL in the test with Micrococcus luteus [7]; 15.6 µg/mL (≈ 29.4 µM) with Bacillus subtilis [10]; 15.6 µg/mL (≈ 29.4 µM) against Staphylococcus aureus [14]; 7.8 µg/mL (≈ 14.7 µM) against Staphylococcus aureus [16]. The same molecule had an MIC against Escherichia coli [17] of 15.6 µg/mL (≈ 29.4 µM). In addition, the MBC was 15.6 µg/mL (≈ 29.4 µM) with Pseudomonas aeruginosa [2]; 15.6 µg/mL (≈ 29.4 µM) in the test with Staphylococcus aureus [6]; 15.6 µg/mL (≈ 29.4 µM) against Bacillus subtilis [9]; 31.2 µg/mL (≈ 58.7 µM) in the test on Escherichia coli [11]; 15.6 µg/mL (≈ 29.4 µM) in the test with Micrococcus luteus [12]; 15.6 µg/mL (≈ 29.4 µM) against Staphylococcus aureus [13]. Moreover, the MBC against Raoultella planticola [19] was determined as 15.6 µg/mL (≈ 29.4 µM).

Values taken from ChEMBL document CHEMBL3286384, “Synthesis, cytotoxicity, antimicrobial and anti-biofilm activities of novel pyrazolo[3,4-b]pyridine and pyrimidine functionalized 1,2,3-triazole derivatives” (Bioorg Med Chem Lett, 2014).
